Results published in patent publication US7723301B2, “Pharmaceutical compositions comprising an anti-teratogenic compound and applications of the same” (The Board of Trustees of the University of Arkansas, priority 2007, dated 2010).
Entries after “also recorded” stand apart in the source; their conditions may differ.

B1: Noggin: recombinant Noggin, an inhibitor of Bmp signaling (protein, UniProt P97466 28-232, looked up)
Noggin: QHYLHIRPAPSDNLPLVDLIEHPDPIFDPKEKDLNETLLRSLLGGHYDPGFMATSPPEDRPGGGGGPAGGAEDLAELDQLLRQRPSGAMPSEIKGLEFSEGLAQGKKQRLSKKLRRKLQMWLWSQTFCPVLYAWNDLGSRFWPRYVKVGSCFSKRSCSVPEGMVCKPSKSVHLTVLRWRCQRRGGQRCGWIPIQYPIISECKCSC

What was measured:
chicken embryos [1] = assay: Inhibitors counteracting thalidomide-induced limb truncations and microphthalmia in chicken embryos; type: in vivo; details: for embryos with limb truncations, thalidomide-treated plus inhibitor: Noggin 100 ng/embryo or LiCl 0.6 mg/embryo at HH stages 17-19
Description: (§1) Fertilized eggs were purchased from Deindl GmbH, Rietberg-Varensell. They were incubated at 38° C. in a humidified incubator, windowed after one day and staged according to Hamburger and Hamilton (HH stage). Racemic thalidomide (Celgene), thalidomide enantiomers or phthalimide (Sigma) were dissolved in DMSO at 5 mg/ml and further diluted in PBS. Embryos were exposed to drugs by dropping 15 μg-3 mg thalidomide or phthalimide per kg egg weight (about 1-200 μg per embryo) in 50 μl DMSO/PBS as a single dose at HH stages 0-13 onto the embryo. Thalidomide (50 μg) or phthalimide (50 μg) in 10 μl DMSO was injected into the extra-embryonic blood vessels of HH 19 stage embryos. LiCl (99% pure, Sigma) was dissolved in sterile PBS. LiCl (0.1, 0.6 or 3.2 mg) was applied at HH stages 17-19 by dropping 500 μl of a 5 mM, 28 mM or 151 mM LiCl solution onto the embryo. Recombinant Noggin, Dkk1 specific goat IgG (R&D Systems) or serum of non-immunized goats (Sigma) was dissolved in 0.1% BSA/0.01% Fast Green/PBS. Noggin (10 or 100 ng), Dkk1 specific goat IgG (5 or 50 ng) or serum of non-immunized goats (50 ng) was applied to a single embryo at HH stages 17-19 by injecting a 10 μl solution through the extra-embryonic membranes.
(§2) The morphology of the limbs was studied in specimens fixed in 5% trichloroacetic acid and stained for cartilage with alcian green as described (3).

[2] = tested on: limb buds of HH stages 23/24 chicken embryos; assay: Whole mount TUNEL staining of limb buds; type: in vivo; details: LiCl 0.6 mg per embryo at HH stages 17-19, 19 of 80
Description: TUNEL staining was performed as described (7).

[3] = tested on: primary limb bud cells (PLBCs); assay: Cell death by trypan blue staining in PLBCs; type: cell-based, chicken; details: for effect on juglone-induced cell death in PLBCs: pre-treatment for one hour, juglone 5 μM two hours; for effect on BMP4-induced PCD in PLBCs: rh BMP4 300 ng/ml; for effect on thalidomide-induced cell death in PLBCs: thalidomide 10 μg/ml, six hours
Description: (§3) Primary limb bud cells (PLBCs) were isolated from 60 pooled wing and hindlimb buds of HH stages 23/24 embryos. Fibroblasts were gained from HH stage 34 chicken embryos or from 13.5 d.p.c. mouse embryos. Human embryonic fibroblasts were provided by Matthias Maass (2). Before adding reagents, all cell types were cultured for 16 hours in D-MEM (Gibco) plus 10% fetal calf serum (FCS) and 2% chicken serum. Treatment with thalidomide, phthalimide, recombinant human (rh) BMP4 (300 ng/ml; R&D Systems), juglone (5 μM; Sigma), recombinant mouse Noggin (30, 300, 1000 ng/ml in FIG. 4B; 300 ng/ml in FIGS. 4C and 6A), anti-human-DKK1 antibody (35, 350 and 1000 ng/ml in FIG. 4B; 350 ng/ml in FIGS. 4C and 6A), LiCl (3, 30, 60 mM in FIG. 4B; 30 mM in FIGS. 4C, 6A and 6C) and/or (2Z,3E)-6-Bromoindirubin-3-oxime (BIO, Gsk3-Inhibitor IX; 50, 500, 1000 nM in FIG. 4B; 500 nM in FIG. 6A; 50 and 500 nM in FIG. 6C; Calbiochem) were performed in Optimem1 (Invitrogen) plus 1% FCS. Unless otherwise noted, all treatments with thalidomide and rh-BMP4 and associated controls were done for six hours. Inhibitors were applied once at the beginning of incubation with the exception of LiCl that was added 150 minutes before harvesting the cells for further analyses. Pre-treatment with phenyl-N-t-butylnitrone (PBN; 2 mM; Sigma) was performed for one hour. Incubations with juglone were performed for two hours, if applicable, after a pre-treatment with PBN, Noggin, anti-Dkk1 antibody, LiCl or Gsk3-Inhibitor IX for one hour.
(§4) Cell death in PLBCs, CEFs, MEFs and HEFs was detected by staining with trypan blue (0.1% (w/v) in PBS; Sigma) for 90 seconds. Cells were counted in a counting chamber to determine the ratio of dead to live cells.

[4] = tested on: primary chicken embryonic fibroblasts (CEFs); assay: Cell death by trypan blue staining in CEFs; type: cell-based; details: data not shown
Description: as §3, §4

[5] = tested on: human embryonic fibroblasts (HEFs); assay: Cell death by trypan blue staining in HEFs; type: cell-based; details: for effect on thalidomide-induced cell death in HEFs: Noggin 300 ng/ml, anti-DKK1 antibody 350 ng/ml, LiCl 30 mM
Description: as §3, §4

[6] = tested on: Bmp4 and Dkk1 expression in PLBCs; assay: sqRT-PCR of Bmp4 and Dkk1 expression in PLBCs; type: cell-based, chicken
Description: as §3
(§5) RNA isolation, semi-quantitative RT-PCRs and whole mount in situ hybridizations were performed according to standard protocols that are well known within the art. RNA was isolated using TRIZOL (Gibco BRL) followed by DNAseI digestion. First strand synthesis was carried out with the Expand RT System (Roche) according to the manufacturer's instructions. PCR amplification was carried out primers and conditions within the knowledge of a person having skill in the relevant art. Quantifications were performed using NIH Image 1.62.

[7] = tested on: Bmp4 and Dkk1 expression in HEFs; assay: sqRT-PCR of Bmp4 and Dkk1 expression in HEFs; type: cell-based, human
Description: as §3, §5

chicken embryos [8] = assay: Thalidomide-induced limb truncations and microphthalmia in chicken embryos; type: in vivo; details: applied to chicken embryos, control reagent
Description: as §1, with “LiCl (99% pure, Sigma) was dissolved in sterile PBS. LiCl (0.1, 0.6 or 3.2 mg) was applied at HH stages 17-19 by dropping 500 μl of a 5 mM, 28 mM or 151 mM LiCl solution onto the embryo.” left out
as §2

[9] = tested on: Dkk1 and Bmp expression in limb buds; assay: sqRT-PCR and whole mount in situ hybridization of Dkk1 and Bmp expression in limb buds; type: in vivo, chicken; details: data not shown
Description: as §5

Wnt/β-catenin signaling = assay: TOPflash luciferase reporter assay in CEFs; type: cell-based, chicken; details: Wnt3a-conditioned medium, 24 hours
Description: Plasmids with wild type (TOPflash) or mutated (FOPflash) LEF/TCF binding sites (5) upstream of a luciferase reporter gene were transiently transfected into CEFs using Lipofectamine (Invitrogen). Following transfection for 24 hours, the cells were exposed to Wnt3a-conditioned medium or to control medium (6) with or without thalidomide or recombinant human DKK1 (150 ng/ml, R&D Biosystems) for 24 hours prior to luciferase assay. Values were normalized for transfection efficiency by co-transfection with a pSV-β-galactosidase vector and for the number of living cells. Luciferase activity was measured using the Dual-Light System (Applied Biosystems).

| Molecule | embryos with limb truncations, thalidomide-treated plus inhibitor (chicken embryos [1]) | effect on juglone-induced cell death in PLBCs [3] | effect on BMP4-induced PCD in PLBCs [3] | effect on thalidomide-induced cell death in PLBCs [3] | effect on thalidomide-induced cell death in CEFs [4] | effect on thalidomide-induced cell death in HEFs [5] | other results |
| --- | --- | --- | --- | --- | --- | --- | --- |
| [Cl-].[Li+] [LiCl] | 5% | could be inhibited | counteracted BMP4-induced PCD in a dose-dependent manner | completely abrogate | block thalidomide-induced cell death | block thalidomide-induced cell death | rescue of thalidomide-induced microphthalmia (chicken embryos [1]; 0.6 mg LiCl): did not rescue; embryos with thalidomide-induced microphthalmia plus LiCl (chicken embryos [1]; 3.2 mg LiCl per embryo): 9%; individual limb buds with enhanced PCD (TUNEL) in thalidomide-treated embryos given inhibitor [2]: 24% |
| CC(C)(C)[N+]([O-])=Cc1ccccc1 [PBN, phenyl-N-t-butylnitrone] | – | completely reduces; also recorded: could be inhibited | no significant effect; also recorded: did not influence | completely reduces; also recorded: completely inhibited | – | – | effect on up-regulation of Bmp4 and Dkk1 expression in thalidomide-treated PLBCs ([6]; pre-treatment with PBN, data not shown): abolishes the up-regulation; effect on up-regulation of Bmp4 and Dkk1 expression in thalidomide-treated HEFs ([7]; pre-treatment with PBN): abolishes the up-regulation |
| O=C1Nc2cc(Br)ccc2/C1=C1/Nc2ccccc2/C1=N\O [Gsk3-Inhibitor IX, (2Z,3E)-6-Bromoindirubin-3-oxime] | – | could be inhibited | counteracted BMP4-induced PCD in a dose-dependent manner | completely abrogate | – | – | – |
| O=C1NC(=O)c2ccccc21 [phthalimide] | – | – | – | – | – | – | limb or eye defects (chicken embryos [8]): did not cause limb or eye defects; Bmp and Dkk1 expression in limb buds [9]: not altered; induction of PCD in PLBCs [3]: did not induce PCD; potential to induce PCD in HEFs [5]: did not induce PCD; expression of Bmp4 and Dkk1 in PLBCs ([6]; 10 μg/ml, six hours): did not influence the expression; expression of Bmp4 and Dkk1 in HEFs ([7]; 10 μg/ml, six hours): did not influence the expression |
| recombinant DKK1: recombinant human DKK1, positive control in the TOPflash assay | – | – | – | – | – | – | effect on Wnt3a-induced TOPflash activity (Wnt/β-catenin signaling): clearly counteracted |
| B1 | 5% | could be inhibited | – | only a partial neutralization; also recorded: clearly reduced | block thalidomide-induced cell death | block thalidomide-induced cell death | – |
